13 molecules from patent US20170008888A1 (KYORIN PHARMACEUTICAL CO., LTD., priority 2014, published 2017) can be followed below.

Common to all, as to format: binding
One assay deals with T1, JAK1 (Homo sapiens, UniProt P23458).
T1 construct: screened for activity against several kinases in Jurkat cells; endogenous in cells; host or cells: Jurkat cell lysate
The assay can be described thus: Probe-based (AX9989) kinase profiling in Jurkat lysate: JAK1. The note with it: read-out: JAK1 Inhibition % at indicated screening concentration; for inhibition at 10 µM: screening concentration 10 μM; for inhibition at 1 µM: screening concentration 1 μM. Summed up:
(§1)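 Jurkat lysate (50 mM HEPES pH 7.5, 150 mM NaCl, 0.1% Triton X-100, 20 mM MnCl2) pre-incubated 15 min with compound at room temperature, then labeled with 5 μM acyl phosphate ATP probe AX9989. Tryptic probe-labeled peptides streptavidin-captured and quantified by LC/MS; percent inhibition from decreased fragment intensity versus untreated.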

A further assay deals with T2, ACK (Homo sapiens, UniProt Q07912).
T2 construct: screened for activity against several kinases in Jurkat cells; endogenous in cells; host or cells: Jurkat cell lysate
Put plainly: Probe-based (AX9989) kinase profiling in Jurkat lysate: ACK. The note with it: read-out: ACK Inhibition % at indicated screening concentration; for inhibition at 10 µM: screening concentration 10 μM; for inhibition at 1 µM: screening concentration 1 μM. Summed up: as §1

The target of a further assay is T3, AurA (Homo sapiens, UniProt O14965).
T3 construct: screened for activity against several kinases in Jurkat cells; endogenous in cells; host or cells: Jurkat cell lysate
T3 sequence (O14965 1-403): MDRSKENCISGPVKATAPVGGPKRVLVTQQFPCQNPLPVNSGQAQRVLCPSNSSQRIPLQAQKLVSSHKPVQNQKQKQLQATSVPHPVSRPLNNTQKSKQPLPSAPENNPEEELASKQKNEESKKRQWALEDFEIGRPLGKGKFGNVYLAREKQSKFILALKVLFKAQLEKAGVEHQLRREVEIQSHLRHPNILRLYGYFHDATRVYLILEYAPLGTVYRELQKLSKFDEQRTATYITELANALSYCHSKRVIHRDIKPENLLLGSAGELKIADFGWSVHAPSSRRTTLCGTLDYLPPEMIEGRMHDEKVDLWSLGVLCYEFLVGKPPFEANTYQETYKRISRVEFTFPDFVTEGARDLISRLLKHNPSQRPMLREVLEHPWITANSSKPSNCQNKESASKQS
The assay can be described thus: Probe-based (AX9989) kinase profiling in Jurkat lysate: AurA. The note with it: read-out: AurA Inhibition % at indicated screening concentration; for inhibition at 10 µM: screening concentration 10 μM; for inhibition at 1 µM: screening concentration 1 μM. Summed up:
as §1

The next assay relates to AMPKa1 or AMPKa2. The assay can be described thus: Probe-based (AX9989) kinase profiling in Jurkat lysate: AMPKa1 or AMPKa2. Summed up: as §1
A further assay has as its target T4, TAO2 (Homo sapiens, UniProt Q9UL54).
T4 construct: screened for activity against several kinases in Jurkat cells; endogenous in cells; host or cells: Jurkat cell lysate
T4 sequence (Q9UL54 1-1235): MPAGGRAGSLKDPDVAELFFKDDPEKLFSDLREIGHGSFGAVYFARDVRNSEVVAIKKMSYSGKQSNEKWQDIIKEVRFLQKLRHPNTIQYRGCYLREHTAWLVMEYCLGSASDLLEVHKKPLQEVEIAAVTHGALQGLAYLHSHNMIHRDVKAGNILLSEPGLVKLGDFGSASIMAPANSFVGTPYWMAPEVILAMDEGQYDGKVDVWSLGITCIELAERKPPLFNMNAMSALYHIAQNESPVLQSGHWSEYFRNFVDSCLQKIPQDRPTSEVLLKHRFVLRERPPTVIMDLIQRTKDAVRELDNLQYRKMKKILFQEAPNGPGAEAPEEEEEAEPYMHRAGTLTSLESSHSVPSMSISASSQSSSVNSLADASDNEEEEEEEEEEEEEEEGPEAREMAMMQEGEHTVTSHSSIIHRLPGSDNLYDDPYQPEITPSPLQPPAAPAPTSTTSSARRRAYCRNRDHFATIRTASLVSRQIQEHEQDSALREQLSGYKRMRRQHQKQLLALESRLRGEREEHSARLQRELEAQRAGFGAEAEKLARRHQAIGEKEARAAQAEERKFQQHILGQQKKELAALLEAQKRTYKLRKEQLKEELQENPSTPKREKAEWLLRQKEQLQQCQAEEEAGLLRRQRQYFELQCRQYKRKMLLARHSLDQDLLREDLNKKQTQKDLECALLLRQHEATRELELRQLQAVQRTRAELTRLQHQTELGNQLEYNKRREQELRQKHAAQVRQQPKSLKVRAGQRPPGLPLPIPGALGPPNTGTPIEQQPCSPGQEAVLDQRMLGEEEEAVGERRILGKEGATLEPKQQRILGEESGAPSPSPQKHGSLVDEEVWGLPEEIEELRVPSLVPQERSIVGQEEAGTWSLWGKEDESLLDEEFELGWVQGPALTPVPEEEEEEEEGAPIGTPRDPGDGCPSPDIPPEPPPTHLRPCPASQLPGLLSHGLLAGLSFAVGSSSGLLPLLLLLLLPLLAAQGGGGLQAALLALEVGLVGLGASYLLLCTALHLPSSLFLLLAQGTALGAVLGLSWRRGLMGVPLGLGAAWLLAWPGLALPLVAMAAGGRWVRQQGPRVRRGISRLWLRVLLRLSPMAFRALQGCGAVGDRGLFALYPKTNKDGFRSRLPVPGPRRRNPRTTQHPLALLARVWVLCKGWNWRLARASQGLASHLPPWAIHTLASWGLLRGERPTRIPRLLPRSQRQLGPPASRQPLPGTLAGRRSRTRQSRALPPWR
The assay can be described thus: Probe-based (AX9989) kinase profiling in Jurkat lysate: TAO2. The conditions noted are these: read-out: TAO2 Inhibition % at indicated screening concentration; for inhibition at 10 µM: screening concentration 10 μM; for inhibition at 1 µM: screening concentration 1 μM. Summed up: as §1

T2 sequence (Q07912 whole entry): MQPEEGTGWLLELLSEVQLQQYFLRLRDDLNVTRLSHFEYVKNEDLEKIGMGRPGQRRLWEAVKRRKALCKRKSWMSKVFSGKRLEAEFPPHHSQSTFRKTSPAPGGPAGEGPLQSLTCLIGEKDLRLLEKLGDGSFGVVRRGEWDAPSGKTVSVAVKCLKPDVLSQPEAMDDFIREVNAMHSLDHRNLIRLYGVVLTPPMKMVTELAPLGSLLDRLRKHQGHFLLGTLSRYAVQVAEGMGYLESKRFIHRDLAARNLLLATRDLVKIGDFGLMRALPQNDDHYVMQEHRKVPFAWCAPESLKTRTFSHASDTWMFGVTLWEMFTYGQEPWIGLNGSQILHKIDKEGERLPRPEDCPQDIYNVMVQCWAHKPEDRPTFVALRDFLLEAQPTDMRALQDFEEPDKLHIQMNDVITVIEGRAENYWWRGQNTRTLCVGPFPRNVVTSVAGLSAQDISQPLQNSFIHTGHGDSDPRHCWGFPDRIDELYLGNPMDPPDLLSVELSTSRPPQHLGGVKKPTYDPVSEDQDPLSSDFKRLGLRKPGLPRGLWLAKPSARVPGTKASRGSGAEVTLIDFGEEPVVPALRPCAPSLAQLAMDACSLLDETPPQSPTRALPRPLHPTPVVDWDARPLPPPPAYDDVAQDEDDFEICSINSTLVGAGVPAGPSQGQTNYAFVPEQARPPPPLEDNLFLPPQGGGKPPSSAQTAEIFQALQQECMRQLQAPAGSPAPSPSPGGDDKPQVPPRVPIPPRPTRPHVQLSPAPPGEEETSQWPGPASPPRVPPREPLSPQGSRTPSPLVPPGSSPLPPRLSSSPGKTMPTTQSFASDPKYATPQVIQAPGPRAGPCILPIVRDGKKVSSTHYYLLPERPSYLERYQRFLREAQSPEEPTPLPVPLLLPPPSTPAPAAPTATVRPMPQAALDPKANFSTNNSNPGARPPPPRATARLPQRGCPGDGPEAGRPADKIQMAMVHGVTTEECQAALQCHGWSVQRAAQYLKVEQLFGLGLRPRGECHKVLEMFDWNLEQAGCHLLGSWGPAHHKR
T1 sequence (P23458 whole entry): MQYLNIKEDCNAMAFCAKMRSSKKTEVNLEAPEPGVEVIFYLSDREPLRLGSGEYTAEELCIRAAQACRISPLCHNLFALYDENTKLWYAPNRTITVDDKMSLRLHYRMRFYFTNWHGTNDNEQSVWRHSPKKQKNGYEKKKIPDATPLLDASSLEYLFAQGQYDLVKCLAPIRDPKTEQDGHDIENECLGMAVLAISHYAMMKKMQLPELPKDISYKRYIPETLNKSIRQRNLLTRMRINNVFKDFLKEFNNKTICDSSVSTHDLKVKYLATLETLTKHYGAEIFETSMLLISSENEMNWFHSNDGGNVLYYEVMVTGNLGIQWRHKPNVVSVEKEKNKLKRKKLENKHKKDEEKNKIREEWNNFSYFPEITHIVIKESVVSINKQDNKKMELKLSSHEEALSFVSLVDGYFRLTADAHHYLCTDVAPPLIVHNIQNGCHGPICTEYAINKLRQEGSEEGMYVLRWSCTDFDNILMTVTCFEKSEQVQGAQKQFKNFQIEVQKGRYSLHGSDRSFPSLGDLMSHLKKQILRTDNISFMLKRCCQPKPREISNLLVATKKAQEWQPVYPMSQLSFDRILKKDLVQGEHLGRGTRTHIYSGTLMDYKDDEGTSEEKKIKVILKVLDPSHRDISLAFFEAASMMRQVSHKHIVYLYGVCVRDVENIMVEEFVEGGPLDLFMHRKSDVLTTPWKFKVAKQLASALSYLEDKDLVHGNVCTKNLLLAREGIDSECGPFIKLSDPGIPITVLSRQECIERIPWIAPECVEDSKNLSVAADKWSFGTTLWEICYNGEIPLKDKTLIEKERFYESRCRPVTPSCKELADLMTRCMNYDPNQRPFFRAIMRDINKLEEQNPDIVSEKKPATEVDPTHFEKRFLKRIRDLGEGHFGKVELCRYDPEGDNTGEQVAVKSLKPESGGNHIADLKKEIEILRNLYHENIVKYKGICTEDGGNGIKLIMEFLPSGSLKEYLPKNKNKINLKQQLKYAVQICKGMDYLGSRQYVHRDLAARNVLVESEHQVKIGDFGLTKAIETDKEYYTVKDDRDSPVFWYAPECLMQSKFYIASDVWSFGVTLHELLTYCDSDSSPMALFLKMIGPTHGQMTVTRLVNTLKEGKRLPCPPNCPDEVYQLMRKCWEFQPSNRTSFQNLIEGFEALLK

`CCOc1cc(C(=O)N2CCC(NCCF)C2)ccc1Nc1cc2c(cn1)N(C)C(C(F)(F)F)c1ccccc1N2C` (centres unmarked) [Compound T54]: the inhibition at 10 µM on JAK1, at ACK, at AurA and on TAO2 was ≤ 35% each time. The “AMPKa1 or AMPKa2 Inhibition % at indicated screening concentration” value (from here on “AMPKa1 or AMPKa2 Inhibition %”) with AMPKa1 or AMPKa2 (screening concentration 10 μM) is given as “E (E is ≦35%)”.

Regarding `CCOc1cc(C(=O)N2CCN(c3cccnc3)CC2)ccc1Nc1cc2c(cn1)N(C)C(=O)c1occc1N2C` [Compound T56], the inhibition at 1 µM on JAK1, on ACK, on AurA and on TAO2 was ≤ 35% throughout. Further, the “AMPKa1 or AMPKa2 Inhibition %” value in the assay on AMPKa1 or AMPKa2 (screening concentration 1 μM) is “E (E is ≦35%)”.

As to `CCOc1cc(C(=O)N[C@H]2CC[C@H](O)CC2)ccc1Nc1cc2c(cn1)N(C)C(=O)c1ccccc1N2C` [Compound T62], the inhibition at 1 µM at JAK1, on ACK, on AurA and at TAO2 was ≤ 35% each time. Besides, the “AMPKa1 or AMPKa2 Inhibition %” value with AMPKa1 or AMPKa2 (screening concentration 1 μM) is on record as “E (E is ≦35%)”.

`CCOc1cc(C(=O)N[C@H]2CC[C@@H](O)CC2)ccc1Nc1cc2c(cn1)N(C)C(=O)c1ccccc1N2C` [Compound T63]: the inhibition at 1 µM on JAK1, on ACK, on AurA and at TAO2 was ≤ 35% each time. Moreover, the “AMPKa1 or AMPKa2 Inhibition %” value in the assay with AMPKa1 or AMPKa2 (screening concentration 1 μM) is reported as “E (E is ≦35%)”.

For the molecule `CCOc1cc(C(=O)N(C)[C@H]2CC[C@H](O)CC2)ccc1Nc1cc2c(cn1)N(C)C(=O)c1ccccc1N2C` [Compound T64], the inhibition at 1 µM on JAK1, at ACK, on AurA and at TAO2 was ≤ 35% in each case. Further, the “AMPKa1 or AMPKa2 Inhibition %” value in the assay with AMPKa1 or AMPKa2 (screening concentration 1 μM) is recorded as “E (E is ≦35%)”.

Regarding `CN1CCC(N2CCN(C(=O)c3ccc(Nc4cc5c(cn4)N(C)C(=O)c4ccccc4N5C)c(F)c3)CC2)CC1` [Compound T70], the inhibition at 1 µM on JAK1, at ACK, on AurA and on TAO2 was ≤ 35% throughout. Also, the “AMPKa1 or AMPKa2 Inhibition %” value with AMPKa1 or AMPKa2 (screening concentration 1 μM) is listed as “E (E is ≦35%)”.

As to `CN1CCC(N2CCN(C(=O)c3ccc(Nc4cc5c(cn4)N(C)C(=O)c4ccccc4N5C)c(OC(F)F)c3)CC2)CC1` [Compound T76], the inhibition at 1 µM at JAK1, at ACK, on AurA and at TAO2 was ≤ 35% each time. Moreover, the “AMPKa1 or AMPKa2 Inhibition %” value in the assay on AMPKa1 or AMPKa2 (screening concentration 1 μM) was “E (E is ≦35%)”.

With `CN1C(=O)c2c(F)cccc2Oc2cc(N[C@H]3CC[C@H](O)CC3)ncc21` [Compound T92], the inhibition at 10 µM at JAK1 was ≤ 35%; at ACK, ≤ 35%; on AurA, ≤ 35%; at TAO2 it was 50 to 75%. The “AMPKa1 or AMPKa2 Inhibition %” value with AMPKa1 or AMPKa2 (screening concentration 10 μM) is reported as “E (E is ≦35%)”.

`COc1cccc2c1Oc1cc(N[C@H]3CC[C@H](O)CC3)ncc1N(C)C2=O` [Compound T95]: the inhibition at 10 µM at JAK1 was ≤ 35%; at ACK it was ≤ 35%; on AurA, ≤ 35%; on TAO2, 50 to 75%. Besides, in the assay on AMPKa1 or AMPKa2 (screening concentration 10 μM), the “AMPKa1 or AMPKa2 Inhibition %” value was “D (D is >35% to ≦50%)”.

Take `CN1C(=O)c2c(F)ccc(F)c2Oc2cc(N[C@H]3CC[C@H](O)CC3)ncc21` [Compound T97]: the inhibition at 10 µM was ≤ 35% on JAK1, ≤ 35% at ACK, ≤ 35% on AurA and 50 to 75% at TAO2. Moreover, the “AMPKa1 or AMPKa2 Inhibition %” value in the assay on AMPKa1 or AMPKa2 (screening concentration 10 μM) was “E (E is ≦35%)”.

For the molecule `CCOc1cc(C(=O)N2CCN(C3CCN(C)CC3)CC2)ccc1Nc1cc2c(cn1)N(C)C(=O)c1ccccc1O2` [Compound T98], the inhibition at 10 µM on JAK1, at ACK, on AurA and on TAO2 was ≤ 35% throughout. Further, the “AMPKa1 or AMPKa2 Inhibition %” value in the assay on AMPKa1 or AMPKa2 (screening concentration 10 μM) was “E (E is ≦35%)”.

For `CCOc1cc(C(=O)N2CCN(C3CCN(C)CC3)CC2)ccc1Nc1cc2c(cn1)N(C)C(=O)c1c(F)cccc1O2` [Compound T102], the inhibition at 10 µM on JAK1, at ACK, on AurA and on TAO2 was ≤ 35% each time. The “AMPKa1 or AMPKa2 Inhibition %” value in the assay on AMPKa1 or AMPKa2 (screening concentration 10 μM) is “E (E is ≦35%)”.

With `C[C@@H]1C[C@H](Nc2cc3c(cn2)N(C)C(=O)c2ccccc2N3C)CC[C@H]1O` [Compound T115], the inhibition at 10 µM at JAK1, on ACK, on AurA and on TAO2 was ≤ 35% each time. Also, the “AMPKa1 or AMPKa2 Inhibition %” value in the assay with AMPKa1 or AMPKa2 (screening concentration 10 μM) is recorded as “E (E is ≦35%)”.
